The results in this text go back to patent publication US20120184537A1, “[1,4]-BENZODIAZEPINES AS VASOPRESSIN V2 RECEPTOR ANTAGONISTS” (SHIRE-MOVETIS N.V., priority 2009, published 2012).

For assay [1], the target named is T1, human V2 receptor (Homo sapiens, UniProt P30518). The experiment in a line: Human V2 agonist effect (cAMP accumulation in transfected CHO cells). It counts as cell-based. Details: expressed in transfected cells; host or cells: CHO cells. The following applies: compound at 1 μM, control response to 1 nM AVP. As to the method:
(§1) The accumulation of cAMP was measured in transfected CHO cells (supra) expressing the human V2 receptor in analogy with the cAMP Assay procedures described in Cotte N., et al., (1998) J. Biol. Chem., 273; 29462-29468; which is incorporated herein by reference.
The cells are suspended in HBSS buffer (Invitrogen) complemented with 20 mM HEPES 20 (pH 7.4), 0.01% BSA and 500 μM IBMX, then distributed in microplates at a density of 3×10^3 cells/well and incubated for 30 min at 22° C. in the absence (control) or presence of the test compound or the reference agonist. For stimulated control measurement, separate assay wells contain AVP at a final concentration of 1 nM. Following incubation, the cells are lysed and the fluorescence acceptor (D2-labeled cAMP) and fluorescence donor (anti-cAMP antibody labeled with europium cryptate) are added. After 60 min at 22° C., the fluorescence transfer is measured at λex=337 nm and λem=620 and 665 nm using a microplate reader (Rubystar, BMG). The cAMP concentration is determined by dividing the signal measured at 665 nm by that measured at 620 nm (ratio).
The results are expressed as a percent of the control response to 1 nM AVP.

Assay [2] deals with T2, human V1a receptors (Homo sapiens, UniProt P37288). The experiment in a line: Human V1a antagonist effect (AVP-induced calcium mobilization in transfected CHO cells). The settings on record: inhibition of response to 10 nM AVP, Ca2+ fluorescence, read-out: V1a antagonism IC50. Details: expressed in transfected cells; host or cells: CHO cells. It is filed as cell-based. The method, then:
(§2) Intracellular calcium mobilization was measured in CHO cells transfected to express either human V1a receptors (supra), in analogy with the Measurement of intracellular Ca^2+ concentration as described in Tahara A., et al., (1998) Brit. J. Pharmacol., 125; 1463-1470; which is incorporated herein by reference.
(§3) The cells are suspended in DMEM buffer (Invitrogen) complemented with 0.1% fetal calf serum, then distributed in microplates at a density of 4.5×10^4 cells/well.
(§4) The fluorescent probe (Calcium4, Molecular Device) mixed with probenicid in HBSS buffer (Invitrogen) complemented with 20 mM Hepes (Invitrogen) (pH 7.4) is then added into each well and equilibrated with the cells for 60 min at 37° C. then 15 min at 22° C. Thereafter, the assay plates are positioned in a microplate reader (CellLux, PerkinElmer) which is used for the addition of the test compound or HBSS buffer then 5 min later 10 nM AVP or HBSS buffer (control), and for the measurements of changes in fluorescence intensity which varies proportionally to the free cytosolic Ca2+ ion concentration.
The standard reference antagonist is [d(CH2)^51,Tyr(Me)^2,Arg^8]-AVP, which is tested in each experiment at several concentrations to generate a concentration-response curve from which its IC50 value is calculated.

Assay [3] addresses T1, human V2 receptor. The experiment in a line: Human V2 antagonist effect (AVP-induced cAMP accumulation in transfected CHO cells). The settings on record: inhibition of control response to 0.03 nM AVP, read-out: V2 antagonism IC50. It counts as cell-based. On the set-up: expressed in transfected cells; host or cells: CHO cells. As to the method: as §1
The cells are suspended in HBSS buffer (Invitrogen) complemented with 20 mM HEPES (pH 7.4), 0.01% and 500 μM IBMX, then distributed in microplates at a density of 3×10^3 cells/well and preincubated for 5 min at 22° C. in the absence (control) or presence of the test compound or the reference antagonist. Thereafter, the reference agonist AVP is added at a final concentration of 0.03 nM.
Following 30 min incubation at 22° C., the cells are lysed and the fluorescence acceptor (D2-labeled cAMP) and fluorescence donor (anti-cAMP antibody labeled with europium cryptate) are added. After 60 min at 22° C., the fluorescence transfer is measured at λex=337 nm and λem=620 and 665 nm using a microplate reader (Rubystar, BMG). The cAMP concentration is determined by dividing the signal measured at 665 nm by that measured at 620 nm (ratio). The results are expressed as a percent inhibition of the control response to 0.03 nM AVP.
The standard reference antagonist is [adamantaneacetyl^1,O-Et-D-Tyr^2,Val^4,aminobutyryl^6]-AVP, which is tested in each experiment at several concentrations to generate a concentration-response curve from which its IC50 value is calculated.

Assay [4] deals with T2, human V1a receptors. The experiment in a line: Human vasopressin V1a receptor binding assay ([3H]AVP displacement). Details: expressed in transfected cells; host or cells: CHO cells (membrane homogenates). The settings on record: displacement of 0.3 nM [3H]AVP, CHO cell membranes, 22° C. As to the method:
(§5) The in vitro inhibition of AVP receptor binding was assessed by using recombinant human V1a or V2 receptor preparations derived from the membranes of transfected CHO cells. Compounds were assessed for their ability to displace [^3H]-arginine vasopressin from plasma membrane preparations of said CHO transfected cells in analogy with the Binding Assay procedures described in Cotte N., et al., (1998) J. Biol. Chem., 273; 29462-29468 and Tahara A., et al., (1998) Brit. J. Pharmacol., 125; 1463-1470; which are incorporated herein by reference.
(§6) Cell membrane homogenates (40 μg protein) are incubated for min at 22° C. with 0.3 nM [^3H]AVP in the absence or presence of the test compound in a buffer containing 50 mM Tris-HCl (pH 7.4), 5 mM MgCl2 and 0.1% BSA. Nonspecific binding is determined in the presence of 1 μM AVP. Following incubation, the samples are filtered rapidly under vacuum through glass fiber filters (GF/B, Packard) presoaked with 0.3% PEI and rinsed three times with ice-cold 50 mM Tris-HCl using a 96-sample cell harvester (Unifilter, Packard). The filters are dried then counted for radioactivity in a scintillation counter (Topcount, Packard) using a scintillation cocktail (Microscint 0, Packard).
(§7) The standard reference compound is AVP (V2 receptor binding assay) or [d(CH2)51,Tyr(Me)2]-AVP (V1a receptor binding assay), which is tested in each experiment at several concentrations to obtain a competition curve from which its IC50 is calculated.

Assay [5] concerns the target T1, human V2 receptor. Kind of assay: Human vasopressin V2 receptor binding assay ([3H]AVP displacement). The settings on record: displacement of 0.3 nM [3H]AVP, CHO cell membranes, 120 min at 22° C. Details: expressed in transfected cells; host or cells: CHO cells (membrane homogenates). As to the method: as §5
as §6, with “membrane homogenates (16 μg protein)” for “membrane homogenates (40 μg protein)”, “incubated for 120 min at” for “incubated for min at”
as §7

Assay [6] concerns the target T2, human V1a receptors. Kind of assay: Human V1a agonist effect (intracellular calcium mobilization in transfected CHO cells). The following applies: compound at 1 μM, control response to 1 μM AVP, Ca2+ fluorescence. Details: expressed in transfected cells; host or cells: CHO cells. It is filed as cell-based. As to the method: as §2, §3
as §4, with “compound, reference agonist” for “compound”, “(basal control),” for “then 5 min later 10 nM AVP or HBSS buffer (control),”, “Ca^2+” for “Ca2+”, “concentration. For stimulated control measurements, AVP at 1 μM is added in separate assay wells.” for “concentration.”
The results are expressed as a percent of the control response to 1 μM AVP.

T2 sequence (P37288 whole entry): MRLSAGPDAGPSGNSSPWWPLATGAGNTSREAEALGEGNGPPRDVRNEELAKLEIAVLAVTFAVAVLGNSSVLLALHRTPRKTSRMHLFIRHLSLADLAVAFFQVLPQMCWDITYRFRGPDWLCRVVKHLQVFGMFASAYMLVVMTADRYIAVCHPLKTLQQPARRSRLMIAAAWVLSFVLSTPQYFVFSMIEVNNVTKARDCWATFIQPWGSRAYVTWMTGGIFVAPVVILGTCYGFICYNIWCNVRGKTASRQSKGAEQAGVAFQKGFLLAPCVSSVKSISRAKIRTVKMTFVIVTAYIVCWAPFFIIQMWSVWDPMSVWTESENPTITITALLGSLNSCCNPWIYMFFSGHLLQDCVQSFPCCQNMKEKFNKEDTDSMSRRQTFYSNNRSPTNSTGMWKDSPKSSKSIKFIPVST

Take “N-[3-chloro-4-({13-oxa-1,9-diazatricyclo[9.4.0.0^{3,8}]pentadeca-1,3,5,7-tetraen-9-yl}carbonyl)phenyl]-2-phenylbenzamide [Compound 21]”: the “V2 agonist effect, % of control agonist response (AVP)” value (shortened to “V2 agonist effect, %”) on human V2 receptor [1] is −1.5%. Besides, the IC50 was greater than 100000 nM on human V1a receptors [2], 410 nM on human V2 receptor [3], 780 nM on human V1a receptors [4] and 19 nM on human V2 receptor [5].

For the molecule `O=C(Nc1ccc(C(=O)N2C[C@@H](CO)NCc3ccccc32)c(Cl)c1)c1ccccc1-c1ccccc1` [Compound 14, (S)—N-(3-chloro-4-(3-(hydroxymethyl)-2,3,4,5-tetrahydro-1H-benzo[e][1,4]diazepine-1-carbonyl)phenyl)biphenyl-2-carboxamide], the “V1a agonist effect, % of control agonist response (AVP)” value (“V1a agonist effect, %” below) at human V1a receptors [6] is −1%. The “V2 agonist effect, %” value at human V2 receptor [1] is given as −1%. Moreover, the 50% inhibitory concentration (IC50) is greater than 100000 nM at human V1a receptors [2], 57 nM on human V2 receptor [3], 3800 nM on human V1a receptors [4] and 5.8 nM at human V2 receptor [5].

Turning to `O=C(Nc1ccc(C(=O)N2C[C@H]3COC(O)CN3Cc3ccccc32)c(Cl)c1)c1ccccc1-c1ccccc1` (stereo partly drawn) [Compound 19, (S)—N-(3-chloro-4-(3-hydroxy-3,4,6,11,12,12a-hexahydro-1H-benzo[e][1,4]oxazino[4,3-a][1,4]diazepine-11-carbonyl)phenyl)biphenyl-2-carboxamide], at human V1a receptors [6], the “V1a agonist effect, %” value is −1%. The “V2 agonist effect, %” value at human V2 receptor [1] is reported as 0%. Moreover, the 50% inhibitory concentration (IC50) on human V1a receptors [2] came to 20000 nM; on human V2 receptor [3] it was 11 nM; at human V1a receptors [4], 210 nM; at human V2 receptor [5], 2.5 nM.

For the molecule `O=C1CN2Cc3ccccc3N(C(=O)c3ccc(NC(=O)c4ccccc4-c4ccccc4)cc3Cl)C[C@H]2CO1` [Compound 16, (S)—N-(3-chloro-4-(3-oxo-3,4,6,11,12,12a-hexahydro-1H-benzo[e][1,4]oxazino[4,3-a][1,4]diazepine-11-carbonyl)phenyl)biphenyl-2-carboxamide], on human V1a receptors [6], the “V1a agonist effect, %” value is listed as −1%. Besides, the “V2 agonist effect, %” value on human V2 receptor [1] is 0%. For the same molecule, the half-inhibitory concentration (IC50) on human V1a receptors [2] is greater than 100000 nM; at human V2 receptor [3] it was 13 nM; on human V1a receptors [4], 240 nM; on human V2 receptor [5], 1.9 nM.

On to `O=C(O)CN1Cc2ccccc2N(C(=O)c2ccc(NC(=O)c3ccccc3-c3ccccc3)cc2Cl)C[C@H]1CO` [Compound 17, (S)-2-(1-(4-biphenyl-2-ylcarboxamido-2-chlorobenzoyl)-3-(hydroxymethyl)-2,3-dihydro-1H-benzo[e][1,4]diazepin-4(5H)-yl)acetic acid], for which the “V1a agonist effect, %” value on human V1a receptors [6] is listed as −1%. For the same molecule, the “V2 agonist effect, %” value on human V2 receptor [1] is given as −1%. Also, the results for the IC50 at human V2 receptor [3] and at human V2 receptor [5] were 2800 nM and 120 nM, respectively.
